Data set [1] in a line: Plasma protein binding assay (Rapid Equilibrium Dialysis), determination of free moiety. It counts as in vitro ADME. To be noted: equilibrium dialysis 5 hours in human plasma at 37° C.; compounds II, III, IV at 10 μM, compound I at 1 μM and 10 μM. On the procedure: Protein binding to the tested compounds was determined by equilibrium dialysis using a Rapid Equilibrium Dialysis (RED) Device system. The dialysis was performed for 5 hours in human plasma at 37° C. The compound II, the compound III, and the compound IV were incubated at 10 μM, and the compound I was incubated at 1 μM and 10 μM. The concentrations of the compounds in plasma and a buffer solution after dialysis were determined through LC-MS/MS analysis. The free moiety is defined as a ratio of the concentration in the buffer solution to the concentration in the plasma.

A short description of data set [2]: Human liver microsomal stability test, determination of inherent clearance. It counts as in vitro ADME. The following applies: 37° C.; for half-life at 1 μM: both sexes, 1 μM compound, human liver microsomes 0.4 mg/mL protein, 1.25 mM NADPH, 1 hour, read-out: Human liver microsome T1/2 (converted); for Human inherent CL: calculated from declination slope of compound concentration in human liver microsomes, 1 μM. On the procedure:
1 μM of the tested compound was incubated for 1 hour together with human liver microsomes of mixed genders (0.4 mg/mL protein) in the presence of 1.25 mM NADPH at 37° C. to determine the inherent clearance. The disappearance of the tested compound was monitored by LC-MS/MS at 0, 10, 20, 30, 45, and 60 minute. By using the standard method reported in literatures, the declination slope of the concentration of the compound was used to calculate the inherent clearance of human.

The target in the next data set is JAK2 kinase (Homo sapiens (Human), UniProt O60674). The experiment in a line: Assay for enzymatic activity (IC50), HTRF kinase assay. To be noted: ATP at Km, 120 min at 23° C. It counts as biochemical. On the procedure: A testing platform for kinase activity of JAK2 was established based on Homogeneous Time-Resolved Fluorescence (HTRF) assay, and the activities of the compounds were tested using the platform. The compounds were subjected to three-fold gradient dilutions with 100% DMSO with a starting concentration of 1 mM (11 dilutions in total). 4 μL of each dilution was added to 96 μL of reaction buffer (50 mM HEPES, pH 7.4, 10 mM MgCl2, 1 mM EGTA, 0.01% Tween-20, 0.005% BAS, 2 mM DTT) and mixed homogeneously. […] The mixture was mixed homogeneously by centrifugation. […] The plate was incubated in the incubator for 1 hr, and then the fluorescence values were read on Envision (available from PerkinElmer). The excitation wavelength was 320 nm, and the emission wavelengths for detection were 665 nm and 620 nm. The enzymatic activity was represented by a ratio of the two readout at the two emission wavelengths. The enzymatic activity for each compound was tested at 11 concentrations, and IC50 values of the compounds were obtained by calculating the data using GraFit6.0 software (Erithacus Software)
JAK2 kinase, sequence (O60674 whole entry): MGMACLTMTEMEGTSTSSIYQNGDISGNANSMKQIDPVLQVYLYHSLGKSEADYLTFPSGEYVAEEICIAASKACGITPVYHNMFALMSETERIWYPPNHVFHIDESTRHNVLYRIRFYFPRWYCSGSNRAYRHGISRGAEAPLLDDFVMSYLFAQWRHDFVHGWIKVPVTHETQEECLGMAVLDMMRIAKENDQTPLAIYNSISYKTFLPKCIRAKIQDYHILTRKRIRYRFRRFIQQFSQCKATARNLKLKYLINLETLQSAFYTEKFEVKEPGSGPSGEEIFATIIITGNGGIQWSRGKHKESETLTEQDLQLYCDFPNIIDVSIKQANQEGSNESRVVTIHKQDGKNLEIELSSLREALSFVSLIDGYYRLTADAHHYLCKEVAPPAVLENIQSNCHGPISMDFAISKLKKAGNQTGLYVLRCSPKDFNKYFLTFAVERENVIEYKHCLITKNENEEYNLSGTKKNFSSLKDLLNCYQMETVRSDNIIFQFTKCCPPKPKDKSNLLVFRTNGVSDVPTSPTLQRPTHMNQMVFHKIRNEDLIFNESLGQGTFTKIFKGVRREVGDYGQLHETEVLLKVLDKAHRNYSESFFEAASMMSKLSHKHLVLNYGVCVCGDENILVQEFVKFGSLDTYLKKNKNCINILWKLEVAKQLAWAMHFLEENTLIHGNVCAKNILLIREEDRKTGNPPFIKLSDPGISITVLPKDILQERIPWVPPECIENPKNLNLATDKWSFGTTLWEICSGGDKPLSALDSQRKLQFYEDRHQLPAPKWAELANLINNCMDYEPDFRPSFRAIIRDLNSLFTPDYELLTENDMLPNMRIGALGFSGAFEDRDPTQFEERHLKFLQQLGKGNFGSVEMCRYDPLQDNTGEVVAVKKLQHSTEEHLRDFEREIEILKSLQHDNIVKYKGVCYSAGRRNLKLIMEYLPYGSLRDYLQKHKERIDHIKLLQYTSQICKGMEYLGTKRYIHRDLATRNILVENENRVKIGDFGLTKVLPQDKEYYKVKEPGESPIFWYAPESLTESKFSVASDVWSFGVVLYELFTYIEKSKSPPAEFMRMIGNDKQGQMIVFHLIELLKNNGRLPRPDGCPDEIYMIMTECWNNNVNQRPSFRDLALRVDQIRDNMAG
(In general: In TR-FRET formats the signal depends on donor and acceptor labels being close together.)

As for `N#CCC(C1CCCC1O)n1cc(-c2ncnc3[nH]ccc23)c(N)n1` (stereo not shown) [Compound II, 3-[3-amino-4-(7H-pyrrolo[2,3-d]pyrimidin-4-yl)-1H-pyrazol-1-yl]-3-(2-hydroxylcyclopentyl)propionitrile], in data set [1], the “Unbound moiety (% human plasma)” value was 28.8%. In addition, in data set [2], the half-life at 1 μM is over 4 h and the “Human inherent CL” value was under 5.17 mL/min/kg. For the same compound, on JAK2 kinase, the IC50 was under 10 nM.
`N#CCC(C1CCC(=O)C1)n1cc(-c2ncnc3[nH]ccc23)c(N)n1` (stereo not shown) [Compound III, 3-[3-amino-4-(7H-pyrrolo[2,3-d]pyrimidin-4-yl)-1H-pyrazol-1-yl]-3-(3-oxocyclopentyl)propionitrile]: in data set [1], the “Unbound moiety (% human plasma)” value is on record as 30.4%. Moreover, in data set [2], the half-life at 1 μM is over 4 h and the “Human inherent CL” value is under 5.17 mL/min/kg. This compound also registered an IC50 on JAK2 kinase of under 10 nM.
The corresponding values for `N#CCC(C1CCCC1=O)n1cc(-c2ncnc3[nH]ccc23)c(N)n1` (stereo not shown) [Compound IV, 3-[3-amino-4-(7H-pyrrolo[2,3-d]pyrimidin-4-yl)-1H-pyrazol-1-yl]-3-(2-oxocyclopentyl)propionitrile] are 24.3%, over 4 h, under 5.17 mL/min/kg and under 30 nM.
For the compound `N#CC[C@H](C1CCCC1)n1cc(-c2ncnc3[nH]ccc23)c(N)n1` [Compound I^a, (3R)-3-[3-amino-4-(7H-pyrrolo[2,3-d]pyrimidin-4-yl)-1H-pyrazol-1-yl]-3-cyclopentylpropionitrile], the half-life at 1 μM in data set [2] was 2.76 h.

One may read the IC50 as the concentration that inhibits the measured activity by half.

Source of the values: patent US10617692B2, “Pyrrolopyrimidine comprising cyclopentyl substituent” (CENTAURUS BIOPHARMA CO., LTD., priority 2016, dated 2020).
